Patent US8063065B2, “Azaindazole compounds as CCR1 receptor antagonists” (Boehringer Ingelheim International GmbH, priority 2008, dated 2011)

What was measured:
CCR1 [1] = target: T1, CCR1 (Homo sapiens, UniProt P32246); test: Method A: calcium flux in CCR1 transfected cells (Fluo-4 NW, FLIPR TETRA), block of the CCR1/MIP-1α interaction; format: cell-based; conditions: Method A: Fluo-4 NW, MIP-1 alpha at EC80
T1 sequence (P32246 1-355): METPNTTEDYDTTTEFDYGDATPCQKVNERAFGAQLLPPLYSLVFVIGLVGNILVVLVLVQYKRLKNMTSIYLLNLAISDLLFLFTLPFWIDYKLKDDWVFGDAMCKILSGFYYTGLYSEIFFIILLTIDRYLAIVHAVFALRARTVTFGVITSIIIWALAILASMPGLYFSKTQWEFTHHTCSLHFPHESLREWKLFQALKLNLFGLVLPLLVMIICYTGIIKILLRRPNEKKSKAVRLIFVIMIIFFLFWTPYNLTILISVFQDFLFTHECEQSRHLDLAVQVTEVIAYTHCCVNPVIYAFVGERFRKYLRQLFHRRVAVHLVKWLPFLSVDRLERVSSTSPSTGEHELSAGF
Method: Compounds are assessed for the ability to block the interaction of CCR1 and MIP-1α in a functional cellular assay measuring calcium flux in CCR1 transfected cells.
Method A: Non-adherent cells purchased from Chemicon Corporation (HTS005C), stably expressing recombinant CCR1 and G-alpha-16 are grown in RPMI 1640 medium (Mediatech 10-080-CM) supplemented with 10% heat-inactivated FBS, 0.4 mg/mL Geneticin and penicillin/streptomycin. On the day of the assay, the cells are transferred to a beaker and dye-loaded in bulk using a Fluo-4 NW Calcium Assay Kit with probenecid (Invitrogen F36205) at 0.8E6 cells/mL for 1 hour at room temperature. After 1 hour, they are seeded in a 384-well tissue culture-treated plate at a density of 20,000 cells/well. Appropriately diluted test compound is added to the well to achieve a top concentration of 3,000 nM (diluted 4-fold with 10 doses total). The final concentration of DMSO is 1%. The buffer is HBSS (Invitrogen 14025) with 20 mM HEPES at pH 7.4. The cells are allowed to incubate 1 hour in the dark at room temperature. The plates are transferred to the FLIPR TETRA where MIP-1 alpha in 1% BSA is added at the EC80 final concentration. Wells+/−MIP-1 alpha containing diluted DMSO instead of compound serve as the controls. Intracellular calcium flux is recorded on the FLIPR TETRA, using excitation at 470/495 nm and emission at 515/575 nm. Data are analyzed using Activity Base software.

CCR1 [2] = target: T1, CCR1; test: Method B: calcium flux in CCR1 transfected cells (Calcium 4 dye, […] FDSS6000), block of the CCR1/MIP-1α interaction; format: cell-based; conditions: Method B: Calcium 4 dye, MIP-1alpha at EC80
In short: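 Non-adherent cells stably expressing CCR1 and G-alpha-16 were loaded with Calcium 4 dye plus probenecid for 1 h at room temperature. Compounds (top 3,000 nM, 4-fold, 10 doses, 1% DMSO) in HBSS/20 mM HEPES pH 7.4 were incubated 30 min at 37 C, then 30 min at room temperature. MIP-1α at EC80 was added and calcium flux read on FDSS6000.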

SMILES | IC50 (CCR1 [1]) [nM] | IC50 (CCR1 [2]) [nM]
COCCNS(=O)(=O)c1ccc(CNC(=O)c2cncc3c2cnn3-c2ccc(F)cc2)cn1 [1-(4-Fluorophenyl)-1H-pyrazolo[3,4-c]pyridine-4-carboxylic acid [6-(2-methoxy-ethylsulfamoyl)-pyridin-3-ylmethyl]-amide] | 9 | –
O=C(NCc1cncc(Br)c1)c1cncc2c1cnn2-c1ccc(F)cc1 [1-(4-Fluorophenyl)-1H-pyrazolo[3,4-c]pyridine-4-carboxylic acid (5-bromopyridin-3-ylmethyl)-amide] | 13 | –
COc1cc(CNC(=O)c2cncc3c2cnn3-c2ccc(F)cc2)ccc1S(C)(=O)=O [1-(4-Fluorophenyl)-1H-pyrazolo[3,4-c]pyridine-4-carboxylic acid 4-methanesulfonyl-3-methoxy-benzylamide] | 4 | –
CC[C@H](NC(=O)c1cncc2c1cnn2-c1ccc(F)cc1)c1ccnc(N2CCN(C)CC2)c1 [1-(4-Fluorophenyl)-1H-pyrazolo[3,4-c]pyridine-4-carboxylic acid {(S)-1-[2-(4-methyl-piperazin-1-yl)-pyridin-4-yl]-propyl}-amide] | – | 8
CCC(NC(=O)c1cncc2c1cnn2-c1ccc(F)cc1)C1CCN(C(N)=O)CC1 (stereo not drawn) [1-(4-Fluorophenyl)-1H-pyrazolo[3,4-c]pyridine-4-carboxylic acid [1-(1-carbamoyl-piperidin-4-yl)-propyl]-amide] | – | 16
COc1cc(CNC(=O)c2cncc3c2cnn3-c2ccc(F)cc2)cc(S(C)(=O)=O)n1 [1-(4-Fluorophenyl)-1H-pyrazolo[3,4-c]pyridine-4-carboxylic acid (2-methanesulfonyl-6-methoxy-pyridin-4-ylmethyl)-amide] | – | 1
CS(=O)(=O)c1cc([C@H](CC2COC(=O)O2)NC(=O)c2cncc3c2cnn3-c2ccc(F)cc2)ccn1 (stereo partly drawn) [1-(4-Fluorophenyl)-1H-pyrazolo[3,4-c]pyridine-4-carboxylic acid [(S)-1-(2-methanesulfonyl-pyridin-4-yl)-2-(2-oxo-1,3-dioxolan-4-yl)-ethyl]-amide] | – | 6
COC(=O)C[C@H](NC(=O)c1cncc2c1cnn2-c1ccc(F)cc1)c1ccnc(S(C)(=O)=O)c1 [(S)-3-{[1-(4-Fluorophenyl)-1H-pyrazolo[3,4-c]pyridine-4-carbonyl]-amino}-3-(2-methanesulfonyl-pyridin-4-yl)-propionic acid methyl ester] | – | 4
CC[C@H](NC(=O)c1cncc2c1cnn2-c1ccc(F)cc1)c1ccnc(N2CCN(C(C)=O)CC2)c1 [1-(4-Fluorophenyl)-1H-pyrazolo[3,4-c]pyridine-4-carboxylic acid {(S)-1-[2-(4-acetyl-piperazin-1-yl)-pyridin-4-yl]-propyl}-amide] | – | 5
CCC(NC(=O)c1cncc2c1cnn2-c1ccc(F)cc1)c1nc(C(=O)NC)co1 (stereo not drawn) [1-(4-Fluorophenyl)-1H-pyrazolo[3,4-c]pyridine-4-carboxylic acid [1-(4-methylcarbamoyl-oxazol-2-yl)-propyl]-amide] | – | 16
CS(=O)(=O)c1cc(CNC(=O)c2cncc3c2cnn3-c2ccc(F)cc2)cc(=O)[nH]1 [1-(4-Fluorophenyl)-1H-pyrazolo[3,4-c]pyridine-4-carboxylic acid (6-methanesulfonyl-2-oxo-1,2-dihydropyridin-4-ylmethyl)-amide] | – | 17
CCC(NC(=O)c1cncc2c1cnn2-c1ccc(F)cc1)C1CCN(S(C)(=O)=O)CC1 (stereo not drawn) [1-(4-Fluorophenyl)-1H-pyrazolo[3,4-c]pyridine-4-carboxylic acid [1-(1-methanesulfonyl-piperidin-4-yl)-propyl]-amide] | – | 2
C=CC[C@H](NC(=O)c1cncc2c1cnn2-c1ccc(F)cc1)c1ccnc(S(C)(=O)=O)c1 [1-(4-Fluorophenyl)-1H-pyrazolo[3,4-c]pyridine-4-carboxylic acid [(S)-1-(2-methanesulfonyl-pyridin-4-yl)-but-3-enyl]-amide] | – | 0.3
CCC(NC(=O)c1cncc2c1cnn2-c1ccc(F)cc1)c1nc(C(=O)NC)c(C)o1 (stereo not drawn) [1-(4-Fluorophenyl)-1H-pyrazolo[3,4-c]pyridine-4-carboxylic acid [1-(5-methyl-4-methylcarbamoyl-oxazol-2-yl)-propyl]-amide] | – | 9
CNc1cc([C@H](C)NC(=O)c2cncc3c2cnn3-c2ccc(F)cc2)cc(S(C)(=O)=O)n1 [1-(4-Fluorophenyl)-1H-pyrazolo[3,4-c]pyridine-4-carboxylic acid [(S)-1-(2-methanesulfonyl-6-methylamino-pyridin-4-yl)-ethyl]-amide] | – | 0.4
CCC(NC(=O)c1cncc2c1cnn2-c1ccc(F)cc1)C1CCCN(S(C)(=O)=O)C1 (stereo not drawn) [1-(4-Fluorophenyl)-1H-pyrazolo[3,4-c]pyridine-4-carboxylic acid [1-(1-methanesulfonyl-piperidin-3-yl)-propyl]-amide] | – | 2

Results, then the compound that gave them:

IC50 (CCR1 [1]) [nM] | IC50 (CCR1 [2]) [nM] | SMILES
– | 0.4 | CC[C@H](NC(=O)c1cncc2c1cnn2-c1ccc(F)cc1)c1ccc(S(C)(=O)=O)o1 [1-(4-Fluorophenyl)-1H-pyrazolo[3,4-c]pyridine-4-carboxylic acid [(S)-1-(5-methanesulfonyl-furan-2-yl)-propyl]-amide]
– | 4 | CC[C@H](NC(=O)c1cncc2c1cnn2-c1ccc(F)cc1)c1coc(S(C)(=O)=O)n1 [1-(4-Fluorophenyl)-1H-pyrazolo[3,4-c]pyridine-4-carboxylic acid [(S)-1-(2-methanesulfonyl-oxazol-4-yl)-propyl]-amide]
– | 0.2 | CC[C@H](NC(=O)c1cncc2c1cnn2-c1ccc(F)cc1)c1ccc(S(C)(=O)=O)s1 [1-(4-Fluorophenyl)-1H-pyrazolo[3,4-c]pyridine-4-carboxylic acid [(S)-1-(5-methanesulfonyl-thiophen-2-yl)-propyl]-amide]
– | 0.2 | CC[C@H](NC(=O)c1cncc2c1cnn2-c1ccc(F)cc1)c1ccnc(S(=O)(=O)CC)c1 [1-(4-Fluorophenyl)-1H-pyrazolo[3,4-c]pyridine-4-carboxylic acid [(S)-1-(2-ethanesulfonyl-pyridin-4-yl)-propyl]-amide]
– | 0.1 | CC[C@H](NC(=O)c1cncc2c1cnn2-c1ccc(F)cc1)c1cc(OC)nc(S(C)(=O)=O)c1 [1-(4-Fluorophenyl)-1H-pyrazolo[3,4-c]pyridine-4-carboxylic acid [(S)-1-(2-methanesulfonyl-6-methoxy-pyridin-4-yl)-propyl]-amide]
– | 7 | CC[C@@H](NC(=O)c1cncc2c1cnn2-c1ccc(F)cc1)c1cc(S(C)(=O)=O)cn1C [1-(4-Fluorophenyl)-1H-pyrazolo[3,4-c]pyridine-4-carboxylic acid [(R)-1-(4-methanesulfonyl-1-methyl-1H-pyrrol-2-yl)-propyl]-amide]
– | 0.6 | CC[C@H](NC(=O)c1cncc2c1cnn2-c1ccc(F)cc1)c1ccc(S(C)(=O)=O)c(O)c1 [1-(4-Fluorophenyl)-1H-pyrazolo[3,4-c]pyridine-4-carboxylic acid [(S)-1-(3-hydroxy-4-methanesulfonyl-phenyl)-propyl]-amide]
– | 4 | C[C@H](NC(=O)c1cncc2c1cnn2-c1ccc(F)cc1)c1csc(S(C)(=O)=O)n1 [1-(4-Fluorophenyl)-1H-pyrazolo[3,4-c]pyridine-4-carboxylic acid [(S)-1-(2-methanesulfonyl-thiazol-4-yl)-ethyl]-amide]
– | 0.3 | CC[C@H](NC(=O)c1cncc2c1cnn2-c1ccc(F)cc1)c1cc(S(C)(=O)=O)[nH]c(=O)c1 [1-(4-Fluorophenyl)-1H-pyrazolo[3,4-c]pyridine-4-carboxylic acid [(S)-1-(6-methanesulfonyl-2-oxo-1,2-dihydropyridin-4-yl)-propyl]-amide]
– | 1 | COC[C@H](NC(=O)c1cncc2c1cnn2-c1ccc(F)cc1)c1ccnc(S(C)(=O)=O)c1 [1-(4-Fluorophenyl)-1H-pyrazolo[3,4-c]pyridine-4-carboxylic acid [(R)-1-(2-methanesulfonyl-pyridin-4-yl)-2-methoxy-ethyl]-amide]
– | 0.2 | CCC[C@@H](NC(=O)c1cncc2c1cnn2-c1ccc(F)cc1)c1ccc(OC)c(S(C)(=O)=O)c1 [1-(4-Fluorophenyl)-1H-pyrazolo[3,4-c]pyridine-4-carboxylic acid [(R)-1-(3-methanesulfonyl-4-methoxy-phenyl)-butyl]-amide]
